Source: patent publication US20240262822A1, “WDR5 INHIBITORS AND MODULATORS” (Vanderbilt University, priority 2021, published 2024)
Read-outs that look alike come from different tables or passages of the source.

Key:
[1] = system: MV4:11 human cancer cell lines; experiment: Cellular viability / anti-proliferative activity, CellTiter-Glo, 5 day protocol; format: cell-based; conditions: 5 day incubation
Procedure: Anti-proliferative activity using MLL-harboring cell lines. MV-4-11 and K562 cells are grown in IMDM media supplemented with 10% FBS and 1% penicillin/streptomycin, Molm-13 cells are cultured in RPMI-1640 media supplemented with 10% FBS and 1% penicillin/streptomycin. Viability assays are performed by dispensing 200 cells at 7200 cells/mL into each well of an opaque 384-well plate and adding compounds at the indicated concentrations in a final volume of 32 μL and a final concentration of DMSO of 0.3% for all samples. A certain range of compound concentrations is made through a series of 2-fold dilutions starting 30 μM at the highest, total 22 dilutions. After a set incubation period, 5 day protocol, the viability of cells in each well is assessed using the CellTiter-Glo assay (Promega), read on a 96 Microplane Luminometer (Cytation 3, BioTek). Serial dilutions of each cell type are performed in all assays to generate standard curves and the final densities of cells are determined within the dynamic range of the instrument. GI50 values are calculated based on XLfit software (IDBS, Guildford, UK) with Sigmoidal Dose-Response Model. Each compound is tested in minimum of two replicates. Data are expressed as mean.

[2] = target: T1, WDR5 (Homo sapiens, UniProt P61964); experiment: Time Resolved-Fluorescence Energy Transfer (TR-FRET) competition assay, displacement of 10mer-Thr-FAM probe from His-tagged WDR5; format: binding; conditions: WDR5-His tag 2 nM, 10mer-Thr-FAM 150 nM, 60 minutes at room temperature
T1 construct: WDR5-His Tag (A23, residues 24-334) is expressed and purified in our lab; made in house
In short: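 Competitive TR-FRET using 2 nM His-tagged WDR5 (residues 24-334), 1 nM Tb-anti-His antibody and 150 nM 10mer-Thr-FAM probe; compounds in a 10-point, 5-fold series from 5 μM, ≤1% DMSO. Incubated 60 min at room temperature in PBS with 300 mM NaCl, 0.5 mM TCEP, 0.1% CHAPS, pH 7.2; 520/495 nm emission gave IC50, converted to Ki by the Wang equation.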

[3] = read-out: Ki for additional WDR5 inhibitor compounds for Inhibition of WDR5 by TR-FRET assay
[4] = Homo sapiens, MV4-11, 120 h, MV4:11 cells, read-out: GI50 for representative compounds on cellular proliferation of MV4:11 human cancer cell lines
[5] = read-out: Ki for Exemplified Compounds for Inhibition of WDR5 by TR-FRET assay

SMILES | GI50 ([1]; MV4;11 cells, read-out: GI50 for additional WDR5 inhibitor compounds on cellular proliferation of MV4;11 human cancer cell lines) [nM] | Ki [2, 3] [nM] | GI50 [1, 4] [nM] | Ki [2, 5] [nM] | GI50 ([1]; Homo sapiens, MV4-11, 120 h, MV4;11 cells, read-out: GI50 for additional WDR5 inhibitor compounds on cellular proliferation of MV4;11 human cancer cell lines) [nM]
CCc1cc(C(=O)NC2CN(C(=O)c3ccncc3)C2)c2nccc(N3CCc4c(cc(Cn5ccnc5)cc4-c4cn(C)nc4C(F)(F)F)C3=O)c2c1 [Compound B-242] | 29 | < 0.02 |  |  | 
CNc1cc2nc(C)nc(N3CCc4c(cc(Cn5ccnc5)cc4-c4cn(C)nc4C(F)(F)F)C3=O)c2cc1OC [Example 55, 7-((1H-Imidazol-1-yl)methyl)-2-(6-methoxy-2-methyl-7-(methylamino)quinazolin-4-yl)-5-(1-methyl-3-(trifluoromethyl)-1H-pyrazol-4-yl)-3,4-dihydroisoquinolin-1(2H)-one] |  |  | 47 | < 0.02 | 
CCc1cc(C(N)=O)c2nccc(N3CCc4c(cc(Cn5ccnc5C)cc4-c4cn(C)nc4C(F)(F)F)C3=O)c2c1 [Example 6, 6-Ethyl-4-(7-((2-methyl-11H-imidazol-1-yl)methyl)-5-(1-methyl-3-(trifluoromethyl)-1H-pyrazol-4-yl)-1-oxo-3,4-dihydroisoquinolin-2(1H)-yl)quinoline-8-carboxamide] |  |  | < 20 | < 0.02 | 
COc1cc2c(N3CCc4c(cc(Cn5ccnc5)cc4-c4cn(C)nc4C(F)(F)F)C3=O)ncnc2cc1OCc1ccnn1C [Example 26, 7-((1H-Imidazol-1-yl)methyl)-2-(6-methoxy-7-((1-methyl-1H-pyrazol-5-yl)methoxy)quinazolin-4-yl)-5-(1-methyl-3-(trifluoromethyl)-1H-pyrazol-4-yl)-3,4-dihydroisoquinolin-1(2H)-one] |  |  | 76 | < 0.02 | 
COc1cnc2cc(C)cc(N3CCc4c(cc(Cn5ccnc5C)cc4-c4cn(C)nc4C(F)(F)F)C3=O)c2c1 [Example 2, 2-(3-Methoxy-7-methylquinolin-5-yl)-7-((2-methyl-1H-imidazol-1-yl)methyl)-5-(1-methyl-3-(trifluoromethyl)-1H-pyrazol-4-yl)-3,4-dihydroisoquinolin-1(2H)-one] |  |  | < 20 | < 0.02 | 
COc1cc2ncnc(N3CCc4c(cc(Cn5ccnc5)cc4-c4cn(C)nc4C(F)(F)F)C3=O)c2cc1OC [Example 24, 7-((1H-Imidazol-1-yl)methyl)-2-(6,7-dimethoxyquinazolin-4-yl)-5-(1-methyl-3-(trifluoromethyl)-1H-pyrazol-4-yl)-3,4-dihydroisoquinolin-1(2H)-one] |  |  | 25 | < 0.02 | 
COc1cc2nccc(N3CCc4c(cc(Cn5ccnc5)cc4-c4cn(C)nc4C(F)(F)F)C3=O)c2cc1OC [Example 16, 7-((1H-Imidazol-1-yl)methyl)-2-(6,7-dimethoxyquinolin-4-yl)-5-(1-methyl-3-(trifluoromethyl)-1H-pyrazol-4-yl)-3,4-dihydroisoquinolin-1(2H)-one] |  |  | < 20 | < 0.02 | 
COc1cc2cnnc(N3CCc4c(cc(Cn5ccnc5)cc4-c4cn(C)nc4C(F)(F)F)C3=O)c2cc1OC [Example 31, 7-((1H-Imidazol-1-yl)methyl)-2-(6,7-dimethoxyphthalazin-1-yl)-5-(1-methyl-3-(trifluoromethyl)-1H-pyrazol-4-yl)-3,4-dihydroisoquinolin-1(2H)-one] |  |  | < 20 | < 0.02 | 
COc1cc2nc(C)nc(N3CCc4c(cc(Cn5ccnc5)cc4-c4cn(C)nc4C(F)(F)F)C3=O)c2cc1OC [Example 15, 7-((1H-Imidazol-1-yl)methyl)-2-(6,7-dimethoxy-2-methylquinazolin-4-yl)-5-(1-methyl-3-(trifluoromethyl)-1H-pyrazol-4-yl)-3,4-dihydroisoquinolin-1(2H)-one] |  |  | < 20 | < 0.02 | 
COc1cc(C(=O)NC2CN(C(=O)C3CCOCC3)C2)c2nccc(N3CCc4c(cc(Cn5ccnc5)cc4-c4cn(C)nc4C(F)(F)F)C3=O)c2c1 [Compound B-229] |  | < 0.02 |  |  | 26
CCc1cc2c(N3CCc4c(cc(Cn5ccnc5)cc4-c4cn(C)nc4C(F)(F)F)C3=O)ccnc2c(OCC(F)F)n1 [Example 39, 7-((1H-Imidazol-1-yl)methyl)-2-(8-(2,2-difluoroethoxy)-6-ethyl-1,7-naphthyridin-4-yl)-5-(1-methyl-3-(trifluoromethyl)-1H-pyrazol-4-yl)-3,4-dihydroisoquinolin-1(2H)-one] |  |  | < 20 | < 0.02 | 
